# Measurements taken from PMC7021728, “Structure of the agonist 12–HHT in its BLT2 receptor-bound state” (Scientific Reports, 2020).
# Where a chain is given by its changes, count along the chain named.
# Key:
# [1] = target: BLT2; set-up: method as in PMID 10934230; conditions: cited from earlier work
# [2] = target: purified BLT2 receptor; set-up: method as in PMID 21688157; conditions: purified BLT2 associated with amphipols in solution, in vitro; cited from earlier work
# [3] = system: BLT1 (residue R156 in BLT1 mutated to alanine); set-up: method as in PMID 17237498; conditions: in words; cited from earlier work
# [4] = target: T1, BLT2 R270^7.35A (Homo sapiens, UniProt Q9NPC1, R270A); test: Gi protein activation catalyzed by BLT2 mutant; format: biochemical; conditions: R270 mutation compared to wild-type, in words
# T1 construct: made in house
# T1 sequence (Q9NPC1 1-358 R270A): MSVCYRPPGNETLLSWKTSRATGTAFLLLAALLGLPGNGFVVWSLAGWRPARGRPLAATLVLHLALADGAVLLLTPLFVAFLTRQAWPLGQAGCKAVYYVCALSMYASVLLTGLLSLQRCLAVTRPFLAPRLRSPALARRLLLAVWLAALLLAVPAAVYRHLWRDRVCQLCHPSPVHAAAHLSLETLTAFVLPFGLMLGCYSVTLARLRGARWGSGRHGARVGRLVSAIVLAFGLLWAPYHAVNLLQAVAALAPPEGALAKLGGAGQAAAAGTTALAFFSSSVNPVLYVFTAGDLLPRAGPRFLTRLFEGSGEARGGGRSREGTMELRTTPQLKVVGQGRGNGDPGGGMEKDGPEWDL
# Method: (§1) All mutations were introduced in the wild-type BLT2 receptor by PCR-mediated mutagenesis using the QuickChange multisite-directed mutagenesis kit (Stratagene) and the wild-type BLT2 construct as a template. Mutations were confirmed by nucleotide sequencing.
# (§2) Gαi2 and Gβ1γ2 were prepared as previously described. Briefly, agonist-dependent functional coupling of the purified receptor to Gαi2β1γ2 was assessed through the rate of GTPγS binding at increasing agonist concentrations determined by monitoring the relative increase in the intrinsic fluorescence ( λexcitation=300nm , λemission=345nm ) of Gαi2 (200 nM of purified G protein) in the presence of BLT2 (20 nM) in buffer containing 10 mM MOPS, pH 7.2, 130 mM NaCl, and 2 mM MgCl2 at 15 °C after the addition of 10 μM GTPγS. The data were normalized to the fluorescence maximum obtained in the presence of saturating concentrations in 12–HHT (10 μM).
# [5] = target: T2, BLT2 S174^ECL2A (Homo sapiens, UniProt Q9NPC1, S174A); test: Gi protein activation catalyzed by BLT2 mutant; format: biochemical; conditions: S174 mutation compared to wild-type, in words
# T2 construct: made in house
# T2 sequence (Q9NPC1 1-358 S174A): T1 sequence (Q9NPC1 1-358 R270A) with S174A, A270R
# Method: as §1, §2
# [6] = target: BLT1; set-up: method as in PMID 10934230; conditions: membrane fractions, BLT1 transfected HEK 293 cells; in cellulo; read-out: equilibrium dissociation constant (Kd); cited from earlier work
smiles,measurement,setting,value
"CCCCC/C=C\C[C@@H](O)/C=C/C=C/C=C\[C@@H](O)CCCC(=O)O [LTB4, leukotriene B4]",Kd,"[1]; membrane fractions, BLT2 transfected HEK 293 cells, in cellulo, read-out: equilibrium dissociation constant (Kd)",~20 nM
same,Kd weaker in the case of BLT2 compared to BLT1,[1]; transfected HEK 293 cells,20 fold
same,Kd,[2],~200 nM
same,effect of the mutation on LTB4 binding,[3],complete loss of LTB4 binding
same,effect of the mutation on ligand binding,[4],does not affect the binding
same,effect of the mutation on ligand binding,[5],does not affect the binding
same,Kd,[6],~1 nM
